Test results: ChEMBL document CHEMBL3885881, “DrugMatrix”
Several values for one entry are separate records, joined by “and”; a condition that tells them apart may be missing. Identical values can stand only once.

Species: Rattus norvegicus
Test: DrugMatrix - Regimen: Daily Repeat
Assay type: toxicity, organism-based, Sprague-Dawley
Set-up: regimen Daily Repeat, gender Male, age 6-8 weeks
Settings: in vivo, po, route oral GAVAGE, vehicle .5 % CMC; for ABSOLUTE BASOPHIL / ABSOLUTE LYMPHOCYTE / ABSOLUTE MONOCYTE / ABSOLUTE SEGMENTED NEUTROPHIL / BASOPHIL / EOSINOPHIL / ERYTHROCYTE COUNT / HEMATOCRIT / HEMOGLOBIN / LEUKOCYTE COUNT / LYMPHOCYTE / MEAN CORPUSCULAR HEMOGLOBIN / MEAN CORPUSCULAR HEMOGLOBIN CONCENTRATION / MEAN CORPUSCULAR VOLUME / MONOCYTE / NEUTROPHIL / PLATELET COUNT / ABSOLUTE EOSINOPHIL / NUCLEATED RED BLOOD CELLS: tissue Blood; for ALANINE AMINOTRANSFERASE / ALBUMIN / ALKALINE PHOSPHATASE / ASPARTATE AMINOTRANSFERASE / BLOOD UREA NITROGEN / CARBON DIOXIDE / CHLORIDE / CHOLESTEROL / CREATINE PHOSPHOKINASE / CREATININE / GLUCOSE / LIPASE / PHOSPHORUS / POTASSIUM / SODIUM / TOTAL BILIRUBIN / TOTAL PROTEIN / URIC ACID / LACTATE DEHYDROGENASE: tissue Plasma
[1] = 0 mg/kg, 72 h, dose level Control, time 3 day
[2] = 0 mg/kg, 120 h, dose level Control, time 5 day
[3] = 11 mg/kg, 72 h, dose level Low, time 3 day
[4] = 11 mg/kg, 120 h, dose level Low, time 5 day

`COc1ccc2c3c1O[C@H]1C[C@@H](O)C=C[C@@]31CCN(C)C2` [GALANTAMINE] was tested, and the “ABSOLUTE BASOPHIL” value [1] was 0 CELLS/uL, the “ABSOLUTE LYMPHOCYTE” value [1] was 15937.67 CELLS/uL and 12269.67 CELLS/uL and the “ABSOLUTE MONOCYTE” value [1] was 138.33 CELLS/uL and 160.33 CELLS/uL. The “ABSOLUTE SEGMENTED NEUTROPHIL” value [1] was 1443 CELLS/uL and 970 CELLS/uL, the BASOPHIL [1] was 0% and the EOSINOPHIL [1] was 0.33% and 0%. The “ERYTHROCYTE COUNT” value [1] was 5.45 x10E6/uL and 5.76 x10E6/uL, the HEMATOCRIT [1] was 34.43% and 36.57% and the HEMOGLOBIN [1] was 13.38 G/DL and 14.22 G/DL. For the same compound, the “LEUKOCYTE COUNT” value [1] was 17.57 x10E3/uL and 13.4 x10E3/uL, the LYMPHOCYTE [1] was 90.33% and 91.67% and the “MEAN CORPUSCULAR HEMOGLOBIN” value [1] was 24.6 pg and 24.67 pg. The “MEAN CORPUSCULAR HEMOGLOBIN CONCENTRATION” value [1] was 38.88 G/DL and 38.85 G/DL, the “MEAN CORPUSCULAR VOLUME” value [1] was 63.27 fL and 63.52 fL and the MONOCYTE [1] was 0.83% and 1.17%. For the same compound, the NEUTROPHIL [1] was 8.5% and 7.17%, the “PLATELET COUNT” value [1] was 1298 x10E3/uL and 1250.83 x10E3/uL and the “ALANINE AMINOTRANSFERASE” value [1] was 47.67 u/L and 49.17 u/L. For the same compound, the ALBUMIN [1] was 4.18 G/DL and 4.33 G/DL, the “ALKALINE PHOSPHATASE” value [1] was 398.5 u/L and 378.5 u/L and the “ASPARTATE AMINOTRANSFERASE” value [1] was 93.17 u/L and 82.17 u/L. The “BLOOD UREA NITROGEN” value [1] was 16 mg/dL and 15 mg/dL, the “CARBON DIOXIDE” value [1] was 29.17 mmol/L and 34.33 mmol/L and the CHLORIDE [1] was 98.17 MEQ/L and 99.17 MEQ/L. The CHOLESTEROL [1] was 68.83 mg/dL and 71.17 mg/dL, the “CREATINE PHOSPHOKINASE” value [1] was 467.33 u/L and 258.67 u/L and the CREATININE [1] was 0.14 mg/dL and 0.18 mg/dL. The GLUCOSE [1] was 151.67 mg/dL and 142.67 mg/dL, the LIPASE [1] was 9.33 u/L and 9 u/L and the PHOSPHORUS [1] was 11.97 mg/dL and 11.67 mg/dL. The POTASSIUM [1] was 6.43 MEQ/L and 7.13 MEQ/L, the SODIUM [1] was 140.68 MEQ/L and 142.22 MEQ/L and the “TOTAL BILIRUBIN” value [1] was 0.18 mg/dL. For the same compound, the “TOTAL PROTEIN” value [1] was 5.82 G/DL and 5.77 G/DL, the “URIC ACID” value [1] was 1.48 mg/dL and 1.55 mg/dL and the “ABSOLUTE BASOPHIL” value [2] was 0 CELLS/uL. The “ABSOLUTE EOSINOPHIL” value [2] was 31 CELLS/uL and 23.33 CELLS/uL, the “ABSOLUTE LYMPHOCYTE” value [2] was 14327.83 CELLS/uL and 14943.67 CELLS/uL and the “ABSOLUTE SEGMENTED NEUTROPHIL” value [2] was 1321.67 CELLS/uL and 1084.33 CELLS/uL. The BASOPHIL [2] was 0%, the EOSINOPHIL [2] was 0.17% and the “ERYTHROCYTE COUNT” value [2] was 5.79 x10E6/uL and 5.71 x10E6/uL. For the same compound, the HEMATOCRIT [2] was 36.1% and 35.28%, the HEMOGLOBIN [2] was 14.15 G/DL and 14.27 G/DL and the “LEUKOCYTE COUNT” value [2] was 15.78 x10E3/uL and 16.08 x10E3/uL. For the same compound, the LYMPHOCYTE [2] was 90.5% and 93%, the “MEAN CORPUSCULAR HEMOGLOBIN” value [2] was 24.48 pg and 25.02 pg and the “MEAN CORPUSCULAR HEMOGLOBIN CONCENTRATION” value [2] was 39.22 G/DL and 40.43 G/DL. For the same compound, the “MEAN CORPUSCULAR VOLUME” value [2] was 62.4 fL and 61.82 fL, the MONOCYTE [2] was 0.67% and 0.17% and the NEUTROPHIL [2] was 8.67% and 6.67%. For the same compound, the “NUCLEATED RED BLOOD CELLS” value [2] was 0.17 /100WBC and 0.33 /100WBC, the “PLATELET COUNT” value [2] was 1211.67 x10E3/uL and 1274 x10E3/uL and the “ALANINE AMINOTRANSFERASE” value [2] was 49 u/L and 54.17 u/L. The ALBUMIN [2] was 4.27 G/DL and 4.22 G/DL, the “ALKALINE PHOSPHATASE” value [2] was 356.67 u/L and 373.17 u/L and the “ASPARTATE AMINOTRANSFERASE” value [2] was 90.17 u/L and 81.83 u/L. For the same compound, the “BLOOD UREA NITROGEN” value [2] was 20.5 mg/dL and 16.67 mg/dL, the “CARBON DIOXIDE” value [2] was 29.17 mmol/L and 30.33 mmol/L and the CHLORIDE [2] was 98 MEQ/L and 99 MEQ/L. The CHOLESTEROL [2] was 69.83 mg/dL and 71 mg/dL, the “CREATINE PHOSPHOKINASE” value [2] was 312 u/L and 273.5 u/L and the CREATININE [2] was 0.21 mg/dL and 0.22 mg/dL. The GLUCOSE [2] was 149.83 mg/dL and 141.83 mg/dL, the “LACTATE DEHYDROGENASE” value [2] was 322 u/L and 153.67 u/L and the LIPASE [2] was 10 u/L and 10.33 u/L. For the same compound, the PHOSPHORUS [2] was 12 mg/dL and 11.38 mg/dL, the POTASSIUM [2] was 6.75 MEQ/L and 7.08 MEQ/L and the SODIUM [2] was 142.8 MEQ/L and 142.75 MEQ/L. The “TOTAL BILIRUBIN” value [2] was 0.17 mg/dL and 0.18 mg/dL, the “TOTAL PROTEIN” value [2] was 6.1 G/DL and the “URIC ACID” value [2] was 1.68 mg/dL and 1.67 mg/dL. The “ABSOLUTE BASOPHIL” value [3] was 0 CELLS/uL, the “ABSOLUTE EOSINOPHIL” value [3] was 71.33 CELLS/uL and the “ABSOLUTE LYMPHOCYTE” value [3] was 10973.33 CELLS/uL. For the same compound, the “ABSOLUTE MONOCYTE” value [3] was 201 CELLS/uL, the “ABSOLUTE SEGMENTED NEUTROPHIL” value [3] was 1221 CELLS/uL and the BASOPHIL [3] was 0%. For the same compound, the EOSINOPHIL [3] was 0.67%, the “ERYTHROCYTE COUNT” value [3] was 5.6 x10E6/uL and the HEMATOCRIT [3] was 35.33%. The HEMOGLOBIN [3] was 13.47 G/DL, the “LEUKOCYTE COUNT” value [3] was 12.47 x10E3/uL and the LYMPHOCYTE [3] was 87.67%. For the same compound, the “MEAN CORPUSCULAR HEMOGLOBIN” value [3] was 24.1 pg, the “MEAN CORPUSCULAR HEMOGLOBIN CONCENTRATION” value [3] was 38.13 G/DL and the “MEAN CORPUSCULAR VOLUME” value [3] was 63.17 fL. The MONOCYTE [3] was 1.67%, the NEUTROPHIL [3] was 10% and the “NUCLEATED RED BLOOD CELLS” value [3] was 0 /100WBC. The “PLATELET COUNT” value [3] was 1277.67 x10E3/uL, the “ALANINE AMINOTRANSFERASE” value [3] was 46.67 u/L and the ALBUMIN [3] was 4.13 G/DL. The “ALKALINE PHOSPHATASE” value [3] was 368.33 u/L, the “ASPARTATE AMINOTRANSFERASE” value [3] was 76.33 u/L and the “BLOOD UREA NITROGEN” value [3] was 17 mg/dL. The “CARBON DIOXIDE” value [3] was 29.67 mmol/L, the CHLORIDE [3] was 98.33 MEQ/L and the CHOLESTEROL [3] was 76.33 mg/dL. The “CREATINE PHOSPHOKINASE” value [3] was 222.67 u/L, the CREATININE [3] was 0.18 mg/dL and the GLUCOSE [3] was 154.33 mg/dL. For the same compound, the “LACTATE DEHYDROGENASE” value [3] was 192 u/L, the LIPASE [3] was 9.67 u/L and the PHOSPHORUS [3] was 12.47 mg/dL. For the same compound, the POTASSIUM [3] was 6.58 MEQ/L, the SODIUM [3] was 142 MEQ/L and the “TOTAL BILIRUBIN” value [3] was 0.2 mg/dL. The “TOTAL PROTEIN” value [3] was 5.83 G/DL, the “URIC ACID” value [3] was 1.5 mg/dL and the “ABSOLUTE BASOPHIL” value [4] was 0 CELLS/uL. For the same compound, the “ABSOLUTE EOSINOPHIL” value [4] was 0 CELLS/uL.
